Key:
[1] = protoporphyrin IX generated as a result of metabolizing 5-ALA in the cytoplasm; cited from earlier work
[2] = system: EGFR-overexpressing A431 cells; experiment: Immunotoxin plus photochemical internalization (PCI), cell viability (CCK-8); format: cell-based; conditions: A431, immunotoxin + PCI with the named photosensitizer + NIR
Procedure: After that, a new medium was added, and irradiation (6.1 mW/cm^2 for 60 min, 22 J/cm^2) with a near infrared light (700 to 1100 nm) was then carried out. Forty-eight hours after the irradiation, CCK-8 was added to the resultant, and the absorption at a wavelength of 450 nm was then measured using a plate reader, so that cell viability was measured (FIG. 8).
Using these photosensitizers, a cell experiment involving the combined use of addition of the immunotoxin and PCI was carried out.

[3] = Singlet oxygen quantum yield (DPBF, light irradiation); format: physicochemical
Procedure: (§1) The absorption maximum of all of the substances was measured in DMSO.
The singlet oxygen quantum yield of PS1 was measured. […] This value was higher than the values of conventional photosensitizers, and thus, the usefulness of PS1 for photo dynamic therapy could be expected.

[4] = Absorption spectrum of PS1 and common photosensitizers in DMSO; format: physicochemical
Procedure: as §1
The absorption spectrum of the synthesized PS1 was measured. […] In addition, absorption spectra were measured at different concentrations, and the absorption at a wavelength of 775 nm was then plotted to obtain a molar adsorption coefficient. As a result, the molar adsorption coefficient was 41000 (M^−1 cm^−1) (FIG. 2).

| Structure (SMILES) | absorption maximum (λab) [1] | photosensitization ability under near infrared light irradiation (reason given for no viability reduction) [2] | singlet oxygen quantum yield ([3]; in a buffer aqueous solution (pH 7.4)) | absorption maximum (region) [4] | singlet oxygen quantum yield ([3]; in DMSO) |
| --- | --- | --- | --- | --- | --- |
| NCC(=O)CCC(=O)O [5-ALA, 5-aminolevulinic acid] | 405 nm | – | – | – | – |
| CC1(C)C(/C=C/C=C/C=C/C=C2\N(CCCCS(=O)(=O)O)c3ccc4ccccc4c3C2(C)C)=[N+](CCCCS(=O)(=O)[O-])c2ccc3ccccc3c21 [Indocyanine green] | – | could not release a sufficient amount of singlet oxygen | 0.12 | in a near infrared region | – |
| [Zn+2].c1ccc2c(c1)-c1nc-2nc2[n-]c(nc3nc([n-]c4nc(n1)-c1ccccc1-4)-c1ccccc1-3)c1ccccc21 [Zinc phthalocyanine] | – | photosensitization could not be performed | – | in a visible light region | high |

— patent US12600734B2, “Photosensitizing dye” (The University of Tokyo, priority 2020, dated 2026)
